Measurements from patent publication US20100267561A1, “HERBICIDAL PYRIDAZINONE DERIVATIVES” (priority 2007, published 2010).

Columns and labels:
Format in all cases: in vivo
[1] = test system: barnyardgrass (Echinochloa crus-galli); assay: Test A pre-/postemergence plant response
Outline: (§1)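 Greenhouse pot test: loam–sand soil; pre- and postemergence sprays applied same day; post plants 2–10 cm, 1–2 leaves. Readout ~10 d, visual % injury vs untreated (0 = none, 100 = complete control).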

corn (Zea mays) = assay: Test A pre-/postemergence plant response
Outline: as §1

[2] = test system: morningglory (Ipomoea coccinea); assay: Test A pre-/postemergence plant response
Outline: as §1

[3] = test system: pigweed (Amaranthus retroflexus); assay: Test A pre-/postemergence plant response
Outline: as §1

[4] = test system: wheat (Triticum aestivum); assay: Test A pre-/postemergence plant response
Outline: as §1

[5] = test system: catchweed bedstraw (Galium aparine); assay: Test B pre-/postemergence plant response; settings: Preemergence
Outline: (§2)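 Visual scoring from 0 (no effect) to 100 (complete control) against untreated controls was done 13 to 15 days after greenhouse treatment. Chemicals were formulated in a surfactant-containing non-phytotoxic solvent and applied to soil preemergence or to 1- to 4-leaf (2-18 cm) plants postemergence.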

[6] = test system: johnsongrass (Sorghum halepense); assay: Test B pre-/postemergence plant response; settings: for Johnsongrass plant response rating: 8 g ai/ha
Outline: as §2

[7] = test system: pigweed (Amaranthus retroflexus); assay: Test B pre-/postemergence plant response; settings: for Pigweed plant response rating: 8 g ai/ha
Outline: as §2

[8] = test system: canarygrass (Phalaris minor); assay: Test B postemergence plant response; settings: for Plant response rating, Canarygrass: Postemergence, scale 0 to 100
Outline: (§3)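 Visual injury ratings on a 0–100 scale, where 100 means complete control, were made 13 to 15 days after postemergence treatment of greenhouse-grown plants at the 1- to 4-leaf stage.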

[9] = test system: chickweed (Stellaria media); assay: Test B postemergence plant response; settings: for Plant response rating, Chickweed: Postemergence
Outline: as §3

[10] = test system: windgrass (Apera spica-venti); assay: Test B postemergence plant response; settings: for Plant response rating, Windgrass: Postemergence
Outline: as §3

[11] = test system: winter barley (Hordeum vulgare); assay: Test B postemergence plant response; settings: for Plant response rating, Barley: Postemergence
Outline: as §3

[12] = Postemergence, 125 g ai/ha, 0 to 100 scale, 0 no effect, 100 complete control
[13] = Postemergence, 500 g ai/ha, 0 to 100 scale, 0 no effect, 100 complete control
[14] = Preemergence, 125 g ai/ha, 0 to 100 scale (0 no effect, 100 complete control)
[15] = Preemergence, 500 g ai/ha, 0 to 100 scale (0 no effect, 100 complete control)
[16] = Postemergence, 16 g ai/ha, scale 0 to 100
[17] = Postemergence, 31 g ai/ha, scale 0 to 100, 0 no effect, 100 complete control
[18] = Postemergence, 62 g ai/ha, scale 0 to 100
[19] = Preemergence, 16 g ai/ha, scale 0 to 100 (0 no effect, 100 complete control)
[20] = Preemergence, 31 g ai/ha, 0 to 100 scale, 0 no effect, 100 complete control
[21] = Preemergence, 62 g ai/ha, scale 0 to 100
[22] = 8 g ai/ha, postemergence, 0-100 scale
[23] = 31 g ai/ha, scale 0 to 100, 0 no effect, 100 complete control

CCc1cc(-c2ccc(Cl)cc2)nn1-c1c(O)cnn(C)c1=O [Compound 21]
Plant response rating, Barnyardgrass [1, 12]: 100
Plant response rating, Barnyardgrass [1, 13]: 100
Plant response rating, Barnyardgrass [1, 14]: 100
Plant response rating, Barnyardgrass [1, 15]: 100
Plant response rating, Corn (corn (Zea mays); [12]): 80
Plant response rating, Corn (corn (Zea mays); [13]): 90
Plant response rating, Corn (corn (Zea mays); [14]): 90
Plant response rating, Corn (corn (Zea mays); [15]): 100
Plant response rating, Morningglory [2, 12]: 0
Plant response rating, Morningglory [2, 13]: 0
Plant response rating, Morningglory [2, 14]: 0
Plant response rating, Morningglory [2, 15]: 0
Plant response rating, Pigweed [3, 12]: 0
Plant response rating, Pigweed [3, 13]: 0
Plant response rating, Pigweed [3, 14]: 0
Plant response rating, Pigweed [3, 15]: 0
Plant response rating, Wheat [4, 12]: 60
Plant response rating, Wheat [4, 13]: 80
Plant response rating, Wheat [4, 14]: 90
Plant response rating, Wheat [4, 15]: 100
Plant response rating, Galium ([5]; 16 g ai/ha, scale 0 to 100 (0 no effect, 100 complete control)): 0
Plant response rating, Galium ([5]; 31 g ai/ha, 0 to 100 scale, 0 no effect, 100 complete control): 0
Plant response rating, Galium ([5]; 62 g ai/ha, scale 0 to 100): 90
Galium plant response rating ([5]; 8 g ai/ha, scale 0 to 100): 0
Johnsongrass plant response rating ([6]; postemergence, 0-100 scale): 60
Plant response rating, Johnsongrass [6, 16]: 90
Plant response rating, Johnsongrass [6, 17]: 90
Plant response rating, Johnsongrass [6, 18]: 100
Plant response rating, Johnsongrass [6, 19]: 85
Plant response rating, Johnsongrass [6, 20]: 90
Plant response rating, Johnsongrass [6, 21]: 100
Johnsongrass plant response rating ([6]; Preemergence, scale 0 to 100): 0
Pigweed plant response rating ([7]; postemergence, 0-100 scale): 0
Plant response rating, Pigweed [7, 16]: 0
Plant response rating, Pigweed [7, 17]: 0
Plant response rating, Pigweed [7, 18]: 0
Plant response rating, Pigweed [7, 19]: 0
Plant response rating, Pigweed [7, 20]: 0
Plant response rating, Pigweed [7, 21]: 0
Pigweed plant response rating ([7]; Preemergence, scale 0 to 100): 0
Canarygrass plant response rating [8, 22]: 10
Plant response rating, Canarygrass ([8]; 16 g ai/ha): 90
Plant response rating, Canarygrass ([8]; 62 g ai/ha): 100
Chickweed plant response rating [9, 22]: 0
Plant response rating, Chickweed ([9]; 16 g ai/ha, scale 0 to 100): 0
Plant response rating, Chickweed [9, 23]: 0
Plant response rating, Chickweed ([9]; 62 g ai/ha, scale 0 to 100): 0
Windgrass plant response rating [10, 22]: 50
Plant response rating, Windgrass ([10]; 16 g ai/ha, scale 0 to 100): 98
Plant response rating, Windgrass [10, 23]: 100
Plant response rating, Windgrass ([10]; 62 g ai/ha, scale 0 to 100): 100
Barley plant response rating [11, 22]: 0
Plant response rating, Barley ([11]; 16 g ai/ha, scale 0 to 100, 0 no effect, 100 complete control): 60
Plant response rating, Barley ([11]; 62 g ai/ha, scale 0 to 100): 100
